Laboratory results from ChEMBL document CHEMBL3813600, “Identification of a novel boronic acid as a potent, selective, and orally active hormone sensitive lipase inhibitor” (Bioorg Med Chem, 2016).
Active and inactive are the calls of the source. The rule behind the calls is not given here.

Tests used:
[1] = target: T1, Hormone-sensitive lipase (Homo sapiens) (UniProt Q05469); assay: Inhibition of recombinant human HSL expressed in Sf9 insect cells at 1 uM using PNPB as substrate measured after 5 mins by spectrophotometric method
T1 sequence (whole entry): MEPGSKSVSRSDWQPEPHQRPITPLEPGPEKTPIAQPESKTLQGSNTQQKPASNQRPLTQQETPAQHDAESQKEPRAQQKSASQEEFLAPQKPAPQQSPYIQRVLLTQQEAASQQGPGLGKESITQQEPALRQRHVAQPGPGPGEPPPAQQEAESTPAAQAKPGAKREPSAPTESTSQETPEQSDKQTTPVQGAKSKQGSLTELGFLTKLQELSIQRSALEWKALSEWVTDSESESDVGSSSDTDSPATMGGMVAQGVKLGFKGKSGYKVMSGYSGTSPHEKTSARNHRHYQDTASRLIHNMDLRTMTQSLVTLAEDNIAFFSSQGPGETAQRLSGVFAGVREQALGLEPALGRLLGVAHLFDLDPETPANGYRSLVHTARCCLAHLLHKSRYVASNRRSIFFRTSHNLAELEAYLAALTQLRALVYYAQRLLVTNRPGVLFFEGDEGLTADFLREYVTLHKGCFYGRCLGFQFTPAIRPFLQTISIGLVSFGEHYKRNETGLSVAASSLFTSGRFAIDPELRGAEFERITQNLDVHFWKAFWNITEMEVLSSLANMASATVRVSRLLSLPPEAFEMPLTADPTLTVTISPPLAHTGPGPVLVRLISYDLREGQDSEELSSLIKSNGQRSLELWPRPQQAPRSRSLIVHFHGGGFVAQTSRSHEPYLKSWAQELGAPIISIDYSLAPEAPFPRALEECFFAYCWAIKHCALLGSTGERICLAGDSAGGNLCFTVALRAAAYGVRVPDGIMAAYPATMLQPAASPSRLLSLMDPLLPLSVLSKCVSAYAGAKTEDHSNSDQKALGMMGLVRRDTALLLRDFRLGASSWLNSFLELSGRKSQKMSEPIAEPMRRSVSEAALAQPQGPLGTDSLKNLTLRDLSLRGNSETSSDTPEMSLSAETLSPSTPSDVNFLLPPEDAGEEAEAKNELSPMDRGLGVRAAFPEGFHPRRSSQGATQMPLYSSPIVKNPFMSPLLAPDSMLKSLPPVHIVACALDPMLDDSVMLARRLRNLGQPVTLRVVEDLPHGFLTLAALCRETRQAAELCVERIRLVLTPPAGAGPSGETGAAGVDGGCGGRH

Hormone-sensitive lipase = target: T2, Hormone-sensitive lipase (Homo sapiens, UniProt Q05469); assay: Inhibition of recombinant human HSL expressed in Sf9 insect cells using PNPB as substrate measured after 5 mins by spectrophotometric method
T2 sequence (Q05469 whole entry): T1 sequence (whole entry)

Rattus norvegicus [2] = assay: Antilipolytic activity in fasted Wistar rat assessed as reduction of plasma glycerol AUC ( 0 to 7 hrs) at 10 mg/kg, po; assay type: functional, organism-based
[3] = target: T1, Hormone-sensitive lipase (Homo sapiens); assay: Inhibition of recombinant human HSL expressed in Sf9 insect cells at 10 uM using PNPB as substrate measured after 5 mins by spectrophotometric method
[4] = target: Cholinesterase (Homo sapiens) (UniProt P06276); assay: Inhibition of BChE (unknown origin) at >50 uM preincubated for 10 mins followed by addition of S-butyrylthiocholine iodide as substrate measured after 15 mins by spectrophotometric method
Chain of Cholinesterase (Homo sapiens) (P06276 whole entry): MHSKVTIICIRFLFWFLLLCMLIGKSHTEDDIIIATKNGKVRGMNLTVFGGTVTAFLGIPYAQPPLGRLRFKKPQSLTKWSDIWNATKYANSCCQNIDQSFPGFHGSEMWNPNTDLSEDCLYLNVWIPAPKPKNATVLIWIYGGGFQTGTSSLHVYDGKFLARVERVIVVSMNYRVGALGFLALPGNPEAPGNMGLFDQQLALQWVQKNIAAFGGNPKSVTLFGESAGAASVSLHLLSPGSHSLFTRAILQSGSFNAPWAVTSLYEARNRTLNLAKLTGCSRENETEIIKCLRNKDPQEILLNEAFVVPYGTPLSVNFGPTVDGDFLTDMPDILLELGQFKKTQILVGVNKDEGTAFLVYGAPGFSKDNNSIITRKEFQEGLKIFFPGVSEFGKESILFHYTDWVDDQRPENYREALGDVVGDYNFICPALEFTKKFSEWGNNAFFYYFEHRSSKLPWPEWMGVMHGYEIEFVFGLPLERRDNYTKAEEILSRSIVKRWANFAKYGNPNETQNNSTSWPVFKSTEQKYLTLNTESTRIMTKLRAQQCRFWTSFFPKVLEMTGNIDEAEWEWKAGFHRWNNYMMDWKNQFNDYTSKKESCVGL

Rattus norvegicus [5] = assay: Antilipolytic activity in fasted Wistar rat assessed as reduction of plasma glycerol AUC ( 0 to 7 hrs) at 3 mg/kg, po; assay type: functional; set-up: scale not given: the % may be the effect or the level left
[6] = target: Acetylcholinesterase (Homo sapiens) (UniProt P22303); assay: Inhibition of AChE (unknown origin) at >50 uM preincubated for 10 mins followed by addition of acetylthiocholine iodide as substrate measured after 15 mins by spectrophotometric method
Chain of Acetylcholinesterase (Homo sapiens) (P22303 whole entry): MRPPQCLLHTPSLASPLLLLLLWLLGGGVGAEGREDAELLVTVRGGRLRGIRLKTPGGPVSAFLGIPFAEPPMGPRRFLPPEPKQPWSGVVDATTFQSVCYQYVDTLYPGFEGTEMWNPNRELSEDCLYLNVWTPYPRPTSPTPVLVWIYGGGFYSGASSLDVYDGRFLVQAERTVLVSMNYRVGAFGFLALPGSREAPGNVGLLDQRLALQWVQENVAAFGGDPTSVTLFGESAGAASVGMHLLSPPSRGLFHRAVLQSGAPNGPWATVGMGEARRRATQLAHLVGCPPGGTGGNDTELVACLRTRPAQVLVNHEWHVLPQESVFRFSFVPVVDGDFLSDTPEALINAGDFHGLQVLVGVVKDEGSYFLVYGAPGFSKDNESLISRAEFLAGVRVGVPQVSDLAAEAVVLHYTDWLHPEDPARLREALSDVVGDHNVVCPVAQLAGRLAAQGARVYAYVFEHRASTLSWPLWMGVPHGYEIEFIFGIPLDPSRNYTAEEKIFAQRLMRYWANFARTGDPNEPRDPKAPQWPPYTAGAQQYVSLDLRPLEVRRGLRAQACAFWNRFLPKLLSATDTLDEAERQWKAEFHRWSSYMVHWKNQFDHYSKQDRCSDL

[7] = Half life in rat plasma at 3 mg/kg, po by LC-MS/MS analysis; assay type: ADME, organism-based
[8] = target: T1, Hormone-sensitive lipase (Homo sapiens); assay: Mixed-type inhibition of recombinant human HSL expressed in Sf9 insect cells using PNPB as substrate measured after 5 mins by Lineweaver-Burk plot analysis
Rattus norvegicus [9] = assay: Antilipolytic activity in orally dosed fasted Wistar rat assessed as reduction of plasma glycerol AUC ( 0 to 7 hrs); assay type: functional, organism-based
[10] = Cmax in rat at 3 mg/kg, po by LC-MS/MS analysis; assay type: ADME, organism-based; set-up: dose 3 mg/kg, route oral; details: in vivo
[11] = AUC (0 to 7 hrs) in rat at 3 mg/kg, po by LC-MS/MS analysis; assay type: ADME, organism-based; set-up: time < 7 hr, dose 3 mg/kg, route oral; details: in vivo

For `CC1(C)OB(c2cccc(OCc3ccc(Oc4ccc(C(F)(F)F)cn4)cc3)c2)OC1(C)C`, which inhibition [1] is on record?
The inhibition was 59%.

Which inhibition [1] does the source give for `N#Cc1ccccc1OCc1ccc(Oc2ccc(C(F)(F)F)cn2)cc1` here?
Its inhibition is 0%.

For `CC1(C)OB(c2ccc(OCc3ccc(Oc4ccc(C(F)(F)F)cn4)cc3)cc2)OC1(C)C`, which inhibition [1] is on record?
Its inhibition is -10%.

For `O=P(O)(O)c1ccccc1OCc1ccc(Oc2ccc(C(F)(F)F)cn2)cc1`, which inhibition [1] is on record?
The inhibition was -5%.

What does the source list for `O=C(Oc1ccc(Oc2ccc(C(F)(F)F)cn2)cc1)N1CCC(O)CC1`?
IC50 (Hormone-sensitive lipase): 270 nM; Activity (Rattus norvegicus [2]): Active

Which IC50 (Hormone-sensitive lipase) does the source give for `OB(O)c1ccccc1OCc1ccccc1` here?
The IC50 was 130 nM.

Which inhibition [3] does the source give for `O=C(Cc1ccc(Oc2ccc(C(F)(F)F)cn2)cc1)N1CCC(O)CC1` here?
Its inhibition is 2%.

With `O=C(O)c1ccccc1OCc1ccc(Oc2ccc(C(F)(F)F)cn2)cc1` as the compound, how does the inhibition [1] read?
Its inhibition is -8%.

For `OB(O)c1ccccc1OCc1ccc(Oc2ccc(C(F)(F)F)cn2)cc1`, which inhibition [1] is on record?
Its inhibition is 89%.

What about the inhibition [4] of the same compound?
Its inhibition is “inactive”.

And the Activity (Rattus norvegicus [5])?
The Activity was 11%.

What about the inhibition [6] of the same compound?
The inhibition was “inactive”.

And the half-life [7]?
The half-life was 2.95 h.

And the IC50 (Hormone-sensitive lipase)?
Its IC50 is 7 nM.

And the inhibition [8]?
The inhibition was “Active”.

And the Activity (Rattus norvegicus [9])?
Its Activity is “Dose-dependent effect”.

And the Cmax [10]?
Its Cmax is 420 ng/mL.

What about the AUC(0-t) at 7 h [11] of the same compound?
Its AUC(0-t) at 7 h is 1750 ng·h/mL.

With `CC1(C)OB(c2ccccc2OCc2ccc(Oc3ccc(C(F)(F)F)cn3)cc2)OC1(C)C` as the compound, how does the inhibition [1] read?
The inhibition was 81%.

For `O=C(Nc1ccc(Oc2ccc(C(F)(F)F)cn2)cc1)N1CCC(O)CC1`, which inhibition [3] is on record?
Its inhibition is 0%.

With `O=C(c1ccccc1OCc1ccc(Oc2ccc(C(F)(F)F)cn2)cc1)C(F)(F)F` as the compound, how does the inhibition [1] read?
The inhibition was 1%.
